Literature values as cited in patent publication US20210199674A1, “TREATMENT METHOD, ANALYZING DEVICE, AND SURFACE TREATING LIQUID” (ARKRAY, Inc., priority 2019, published 2021).

Details: for acid dissociation constant pKa1: first acidic proton dissociates; for acid dissociation constant pKa4: fourth acidic proton dissociates; for acid dissociation constant pKa2: second acidic proton dissociates; for acid dissociation constant pKa3: third acidic proton dissociates

O=P(O)(O)CP(=O)(O)O [methylene diphosphonate]
acid dissociation constant pKa1: 1.43 | acid dissociation constant pKa4: 10.96 | acid dissociation constant pKa2: 3.05 | acid dissociation constant pKa3: 7.35

O=P(O)(O)OP(=O)(O)O [pyrophosphoric acid]
acid dissociation constant pKa1: 0.9 | acid dissociation constant pKa4: 9.4 | acid dissociation constant pKa2: 2.0 | acid dissociation constant pKa3: 6.6
